Where a name gives a salt, the structure may show the parent alone.
Columns and labels:
Type in all cases: cell-based, mouse
PGC-1 alpha 4 isoform = test: Real time PCR of PGC-1 alpha 4 isoform mRNA in differentiated C2C12 muscle cells; conditions: 10 μM compound in 0.1% DMSO, about 24 hours, normalized to GAPDH, vs DMSO negative control
Procedure: (§1) In detail, C2C12 cell line (mouse gastrocnemius muscle, ATCC® CRL-1772™) was seeded in a 10% FBS/DMEM culture medium. When the cells reached about 70% confluence in 5% CO2 incubator at 37° C., the culture medium was replaced by 2% FBS/DMEM, and further cultured for about 4 days to induce complete differentiation into muscle cells. The C2C12 cell line is a mouse myoblast cell line obtained through continuous culture of myoblasts cultured from the gastrocnemius muscle of C3H mice.
(§2) When the C2C12 cells were completely differentiated, the medium was removed, and 10 μM (in 0.1% DMSO) of active compound for screening was added to the cultured muscle cells, followed by incubation under conditions of 37° C. and 5% CO2 for about 24 hours. As the active compound for screening, a library of a total of 700 compounds (Selleck Chemicals) was used. Thereafter, the cultured muscle cells were washed with PBS to obtain muscle cells. As a negative control, muscle cells treated with DMSO (Sima-Aldrich), instead of the active compound for screening, were used. As a positive control, muscle cells treated with forskolin were used.
(§3) Total RNA was separated according to the manufacturer's protocol by adding a Trizol reagent (Invitrogen) to the obtained cells. cDNA was synthesized from the separated total RNA using reverse transcriptase. The mRNA levels of PGC-1 alpha 4 isoform and myostatin were quantified using a real time PCR (MyiQPCR instrument, BioRad), which is a device for measuring SYBR Green. The resulting amounts were then normalized to the amount of GAPDH mRNA.
(§4) After normalization of the values obtained from the amplification to GAPDH gene, relative mRNA expression levels of PGC-1 alpha 4 isoform and myostatin were quantified. The relative mRNA expression levels (Arbitrary Unit; AU) of PGC-1 alpha 4 isoform and myostatin thus quantified are shown in FIGS. 2A and 2B, respectively (*: p<0.05 vs. negative control).

myostatin = test: Real time PCR of myostatin mRNA in differentiated C2C12 muscle cells; conditions: 10 μM compound in 0.1% DMSO, about 24 hours, normalized to GAPDH, vs DMSO negative control
Procedure: as §1, §2, §3, §4

C2C12 cells = test: Muscle fiber diameter of differentiated C2C12 muscle cells (microscope); conditions: 100 μM compound, about 24 hours, vs DMSO negative control
Procedure: as §1
Muscle fiber-protecting effects of the compounds selected in 1. were examined by measuring the diameter of muscle fiber according to addition of the selected compounds.
As described in Example 1.1, C2C12 cells were completely differentiated to muscle cells. After removal of the medium, 4 ml of a fresh medium containing each 100 μM of isotretinoin (Roche), vismodegib (Genentech), or lincomycin hydrochloride (Sima-Aldrich) was added, and the cells were cultured in a 5% CO2 incubator at 37° C. for about 24 hours. As a negative control, muscle cells treated with DMSO (Sima-Aldrich), instead of the selected compounds, were used. As a positive control, muscle cells treated with forskolin were used.
Thereafter, the cultured cells were washed with PBS. Muscle fibers of the cells were photographed with a microscope (×200), and diameter (μm) of the muscle fiber was measured.

Row | SMILES | level (relative mRNA expression) of PGC-1 alpha 4 isoform compared to the negative control (PGC-1 alpha 4 isoform) | level (relative mRNA expression) of myostatin compared to the negative control (myostatin) | muscle fiber diameter compared to the negative control (C2C12 cells)
1 | CC1=C(/C=C/C(C)=C/C=C/C(C)=C\C(=O)O)C(C)(C)CCC1 [isotretinoin, (2Z,4E,6E,8E)-3,7-dimethyl-9-(2,6,6-trimethylcyclohex-1-en-1-yl)nona-2,4,6,8-tetraenoic acid] | increasing | decreasing | increased
2 | CCC[C@@H]1C[C@@H](C(=O)N[C@@H]([C@H]2O[C@H](SC)[C@H](O)[C@@H](O)[C@H]2O)[C@@H](C)O)N(C)C1 [lincomycin hydrochloride, (2S,4R)-N-[(1R,2R)-2-hydroxy-1-[(2R,3R,4S,5R,6R)-3,4,5-trihydroxy-6-(methylsulfanyl)oxan-2-yl]propyl]-1-methyl-4-propylpyrrolidine-2-carboxamide] | increasing | decreasing | increased
3 | CS(=O)(=O)c1ccc(C(=O)Nc2ccc(Cl)c(-c3ccccn3)c2)c(Cl)c1 [vismodegib, 2-chloro-N-(4-chloro-3-pyridin-2-ylphenyl)-4-methylsulfonylbenzamide] | increasing | decreasing | increased
